{
  "source": "patent US20170009266A1",
  "about": "“PROCESS FOR THE ATTACHMENT OF A GALNAC MOIETY COMPRISING A (HETERO)ARYL GROUP TO A GLCNAC MOIETY, AND PRODUCT OBTAINED THEREBY” (SYNAFFIX B.V., priority 2014, published 2017)",
  "assay_type_in_all_cases": "biochemical, bovine",
  "key": {"Gal-T1(Y289L,C342T)": {"target": "T1, Gal-T1(Y289L,C342T) (Bos taurus, UniProt P08037, C342T/Y289L)", "T1 construct": "host or cells: CHO K1", "T1 sequence (P08037 74-402 V158I/P187L/I205M/L206V/Y289L/C342T)": "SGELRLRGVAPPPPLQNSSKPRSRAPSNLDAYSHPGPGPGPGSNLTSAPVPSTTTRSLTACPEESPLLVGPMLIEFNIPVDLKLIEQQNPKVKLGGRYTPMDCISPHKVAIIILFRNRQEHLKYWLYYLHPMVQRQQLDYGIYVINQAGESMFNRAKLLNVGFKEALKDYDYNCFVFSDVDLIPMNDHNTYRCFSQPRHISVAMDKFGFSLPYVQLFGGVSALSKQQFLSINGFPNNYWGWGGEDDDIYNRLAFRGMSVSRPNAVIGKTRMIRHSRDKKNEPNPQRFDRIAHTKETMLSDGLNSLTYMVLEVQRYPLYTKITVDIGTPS", "assay": "Glycosyltransfer to trimmed trastuzumab with Gal-T1(Y289L,C342T) expressed in CHO", "conditions": "trimmed trastuzumab 10 mg/mL; UDP derivative 5 mM; enzyme 2.0 mg/mL; pH 8.0, 30° C. overnight", "experimental": "(§1) A solution of 20 μg (modified) IgG was incubated for 1 hour at 37° C. with Fabricator™ (commercially available from Genovis, Lund, Sweden) (1.25 U/μL) in phosphate-buffered saline (PBS) pH 6.6 in a total volume of 10 μL. Fabricator™-digested samples were washed trice with milliQ using an Amicon Ultra-0.5, Ultracel-10 Membrane (Millipore) resulting in a final sample volume of approximately 40 μL. The Fc/2 fragment was analyzed by electrospray ionization time-of-flight (ESI-TOF) on a JEOL AccuTOF. Deconvoluted spectra were obtained using Magtran software.\n(§2) A set of Gal-T 1 mutants encoding residues 74-402 of bovine Gal-T 1 were transiently expressed in CHO K1 cells by Evitria (Zurich, Switzerland) which include the Gal-T1 single mutants Y289L (represented by SEQ ID NO: 26), Y289F (represented by SEQ ID NO: 27), Y289M (represented by SEQ ID NO: 28), Y289V (represented by SEQ ID NO: 29), Y289A (represented by SEQ ID NO: 30), and Y289G (represented by SEQ ID NO: 31), and the Gal-T1 double mutants Y289L,C342T (represented by SEQ ID NO: 32), and Y289M,C342T (represented by SEQ ID NO: 33). The mutants were purified using a cation exchange column (Source 15S HR16/10 column, GE Healthcare) as described above. Purified proteins were analyzed by SDS-PAGE. […]"}, "Gal-T1(Y289L)": {"target": "T2, Gal-T1(Y289L) (Bos taurus, UniProt P08037, I205M/L206V/P187L/V158I/Y289L)", "T2 construct": "host or cells: CHO K1", "T2 sequence (P08037 74-402 V158I/P187L/I205M/L206V/Y289L)": "T1 sequence (P08037 74-402 V158I/P187L/I205M/L206V/Y289L/C342T) with T269C", "assay": "Glycosyltransfer to trimmed trastuzumab with Gal-T1(Y289L) expressed in CHO", "conditions": "trimmed trastuzumab 10 mg/mL; UDP derivative 5 mM; enzyme 0.5 mg/mL; pH 8.0, 30° C. overnight", "text": "A set of Gal-T 1 mutants encoding residues 74-402 of bovine Gal-T 1 were transiently expressed in CHO K1 cells by Evitria (Zurich, Switzerland) which include the Gal-T1 single mutants Y289L (represented by SEQ ID NO: 26), Y289F (represented by SEQ ID NO: 27), Y289M (represented by SEQ ID NO: 28), Y289V (represented by SEQ ID NO: 29), Y289A (represented by SEQ ID NO: 30), and Y289G (represented by SEQ ID NO: 31), and the Gal-T1 double mutants Y289L,C342T (represented by SEQ ID NO: 32), and Y289M,C342T (represented by SEQ ID NO: 33). The mutants were purified using a cation exchange column (Source 15S HR16/10 column, GE Healthcare) as described above. Purified proteins were analyzed by SDS-PAGE.\nTrimmed trastuzumab (10 mg/mL, […] obtained by Endo S treatment of trastuzumab, was incubated with the 4-azido-3,5-difluorobenzoyl derivative of UDP-galactosamine (23, 5 mM) and one of the Gal-T1 single mutants Y289L, Y289M, Y289A or Y289G (expressed in CHO as described above) (0.5 mg/mL) in 10 mM MnCl2 and 25 mM Tris-HCl pH 8.0 at 30° C. overnight. Mass spectral analysis of the reduced sample indicated a partial conversion of the core GlcNac(Fuc)-substituted trastuzumab heavy chain (49504 Da) into product 30 (49818 to 49825 Da, 20 to 50% of total heavy chain depending on the Gal-T1 mutant used), resulting from transfer of 23 to core GlcNAc(Fuc)-substituted trastuzumab heavy chain. […]"}, "Gal-T1(Y289M,C342T)": {"target": "T3, Gal-T1(Y289M,C342T) (Bos taurus, UniProt P08037, C342T/Y289M)", "T3 construct": "host or cells: CHO K1", "T3 sequence (P08037 74-402 V158I/P187L/I205M/L206V/Y289M/C342T)": "T1 sequence (P08037 74-402 V158I/P187L/I205M/L206V/Y289L/C342T) with L216M", "assay": "Glycosyltransfer to trimmed trastuzumab with Gal-T1(Y289M,C342T) expressed in CHO", "conditions": "trimmed trastuzumab 10 mg/mL; UDP derivative 5 mM; enzyme 1.0 mg/mL; pH 8.0, 30° C. overnight", "experimental": "as §1, §2"}},
  "note": "Substitutions are numbered along the chain they refer to.",
  "data": [
    {"molecule": "[N-]=[N+]=Nc1c(F)cc(C(=O)N[C@H]2[C@@H](OP(=O)(O)OP(=O)(O)OC[C@H]3O[C@@H](n4ccc(=O)[nH]c4=O)[C@H](O)[C@@H]3O)O[C@H](CO)[C@H](O)[C@@H]2O)cc1F", "note": "[Compound 23, 4-azido-3,5-difluorobenzoyl Derivative of UDP-GalNH2]", "values": [
      {"measurement": "conversion of core GlcNAc(Fuc)-substituted trastuzumab into product", "setting": "Gal-T1(Y289L,C342T)", "result": "complete conversion"},
      {"measurement": "observed conversion", "setting": "Gal-T1(Y289L)", "result": "approximately 30%"},
      {"measurement": "conversion of core GlcNAc(Fuc)-substituted trastuzumab into product", "setting": "Gal-T1(Y289M,C342T)", "result": "complete conversion"}
    ]}
  ]
}
